Several values for one entry are separate records, joined by “and”; a condition that tells them apart may be missing. Equal values may be shown once. Toxic doses and inconclusive results are not listed. Cut-off read from the data, not from the text of the source: active = T/C of 150% or more; inactive = T/C below 125%.
Test system: L1210 leukemia ip in BDF1 mice, survival T/C
Assay: NCI In Vivo Anticancer Drug Screen. Data for tumor model L1210 Leukemia (intraperitoneal) in B6D2F1 (BDF1) mice
Conditions: endpoint: mean survival time, higher = longer survival
Outline: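 Transplantable tumor model; survival measured in treated vs vehicle control mice. Value = treated/control.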

[1] = dose: 100.0 mg/kg/injection, schedule: Q01DX009 (ip), vehicle: saline with Tween-80
[2] = dose: 100.0 mg/kg/injection, schedule: Q04DX002 (ip), vehicle: saline with Tween-80
[3] = dose: 100.0 mg/kg/injection, schedule: Q04DX003 (ip), vehicle: saline with Tween-80
[4] = dose: 200.0 mg/kg/injection, schedule: Q01DX009 (ip), vehicle: saline with Tween-80
[5] = dose: 200.0 mg/kg/injection, schedule: Q04DX002 (ip), vehicle: saline with Tween-80
[6] = dose: 200.0 mg/kg/injection, schedule: Q04DX003 (ip), vehicle: saline with Tween-80
[7] = dose: 400.0 mg/kg/injection, schedule: Q01DX009 (ip), vehicle: saline with Tween-80
[8] = dose: 400.0 mg/kg/injection, schedule: Q04DX002 (ip), vehicle: saline with Tween-80
[9] = dose: 400.0 mg/kg/injection, schedule: Q04DX003 (ip), vehicle: saline with Tween-80
[10] = dose: 100.0 mg/kg/injection, schedule: Q01DX001 (ip), vehicle: other
[11] = dose: 200.0 mg/kg/injection, schedule: Q01DX001 (ip), vehicle: other
[12] = dose: 400.0 mg/kg/injection, schedule: Q01DX001 (ip), vehicle: other
[13] = dose: 100.0 mg/kg/injection, schedule: Q01DX001 (ip), vehicle: saline
[14] = dose: 200.0 mg/kg/injection, schedule: Q01DX001 (ip), vehicle: saline
[15] = dose: 400.0 mg/kg/injection, schedule: Q01DX001 (ip), vehicle: saline
[16] = dose: 100.0 mg/kg/injection, schedule: Q04DX002 (ip), vehicle: Klucel (hydroxypropylcellulose) (HPC)
[17] = dose: 200.0 mg/kg/injection, schedule: Q04DX002 (ip), vehicle: Klucel (hydroxypropylcellulose) (HPC)
[18] = dose: 400.0 mg/kg/injection, schedule: Q04DX002 (ip), vehicle: Klucel (hydroxypropylcellulose) (HPC)
[19] = dose: 100.0 mg/kg/injection, schedule: Q04DX003 (ip), vehicle: saline
[20] = dose: 200.0 mg/kg/injection, schedule: Q04DX003 (ip), vehicle: saline
[21] = dose: 400.0 mg/kg/injection, schedule: Q04DX003 (ip), vehicle: saline
[22] = dose: 100.0 mg/kg/injection, schedule: Q01DX009 (ip), vehicle: saline
[23] = dose: 200.0 mg/kg/injection, schedule: Q01DX009 (ip), vehicle: saline
[24] = dose: 400.0 mg/kg/injection, schedule: Q01DX009 (ip), vehicle: saline

Measured: T/C

CCCCCCCN(CCCCCCC)C(C)C(=O)c1ccc2cc(Br)c3ccccc3c2c1 (stereo unspecified)
inactive: dose: 100.0 mg/kg/injection, schedule: Q01DX001 (ip), vehicle: alcohol 106 % of control | dose: 200.0 mg/kg/injection, schedule: Q01DX001 (ip), vehicle: alcohol 97 % of control | dose: 400.0 mg/kg/injection, schedule: Q01DX001 (ip), vehicle: alcohol 100 % of control

CC(C)c1ccc(N2CSC(=S)N(c3ccc(C(C)C)cc3)C2)cc1
inactive: dose: 100.0 mg/kg/injection, schedule: Q04DX002 (sc), vehicle: olive oil, sesame oil, peanut oil 104 % of control | dose: 200.0 mg/kg/injection, schedule: Q04DX002 (sc), vehicle: olive oil, sesame oil, peanut oil 107 % of control | dose: 400.0 mg/kg/injection, schedule: Q04DX002 (sc), vehicle: olive oil, sesame oil, peanut oil 101 % of control

O=S(=O)(c1ccc(NC(=S)NC(Cc2ccccc2)c2ccccc2)cc1)N1CCCCC1 (stereo unspecified)
inactive: dose: 100.0 mg/kg/injection, schedule: Q04DX003 (ip), vehicle: carboxymethylcellulose (CMC) 91 % of control | dose: 200.0 mg/kg/injection, schedule: Q04DX003 (ip), vehicle: carboxymethylcellulose (CMC) 89 % of control | dose: 400.0 mg/kg/injection, schedule: Q04DX003 (ip), vehicle: carboxymethylcellulose (CMC) 93 % of control

Cc1ccc(C)c(NC(=O)OCc2ccco2)c1
inactive: dose: 100.0 mg/kg/injection, schedule: Q01DX001 (ip), vehicle: saline with Tween-80 97 % of control | [1] 107 % of control and 89 % of control | [2] 93 % of control and 100 % of control | [3] 105 % of control | dose: 200.0 mg/kg/injection, schedule: Q01DX001 (ip), vehicle: saline with Tween-80 95 % of control | [4] 100 % of control and 89 % of control | [5] 96 % of control and 98 % of control | [6] 93 % of control | dose: 400.0 mg/kg/injection, schedule: Q01DX001 (ip), vehicle: saline with Tween-80 95 % of control | [7] 100 % of control and 89 % of control | [8] 93 % of control and 102 % of control | [9] 93 % of control

CCC/C(=N\NC(N)=O)C(OC)OC
inactive: [10] 94 % of control | [11] 105 % of control | [12] 92 % of control

CCCCCCC(CO)CO
inactive: [13] 89 % of control | [14] 91 % of control | [15] 94 % of control

CN(C)C1(Cc2ccccc2)c2ccccc2-c2ccc(Br)cc21 (stereo unspecified)
inactive: dose: 6.25 mg/kg/injection, schedule: Q01DX009 (ip), vehicle: saline with Tween-80 92 % of control | dose: 12.5 mg/kg/injection, schedule: Q01DX009 (ip), vehicle: saline with Tween-80 89 % of control | dose: 25.0 mg/kg/injection, schedule: Q01DX009 (ip), vehicle: saline with Tween-80 89 % of control | [1] 88 % of control

CC(=O)[C@@]1(O)CC[C@H]2[C@@H]3C=C(C)C4=CC(=O)C=C[C@]4(C)[C@@]3(F)[C@@H](O)C[C@@]21C
inactive: dose: 50.0 mg/kg/injection, schedule: Q01DX001 (sc), vehicle: steriod suspending solution 96 % of control | dose: 100.0 mg/kg/injection, schedule: Q01DX001 (sc), vehicle: steriod suspending solution 102 % of control | dose: 200.0 mg/kg/injection, schedule: Q01DX001 (sc), vehicle: steriod suspending solution 105 % of control | dose: 400.0 mg/kg/injection, schedule: Q01DX001 (sc), vehicle: steriod suspending solution 118 % of control

Cc1cc(OCCOC(=O)Nc2ccccc2C(F)(F)F)cc(C)c1Cl
inactive: [16] 89 % of control | [17] 101 % of control | [18] 92 % of control

CC12CCCCC1=CC(O)CC2 (stereo unspecified)
inactive: dose: 50.0 mg/kg/injection, schedule: Q01DX009 (ip), vehicle: saline with Tween-80 98 % of control | [1] 91 % of control | [4] 94 % of control

NC(=O)C1=C(N)CCC1
inactive: [3] 100 % of control | [6] 95 % of control | [9] 97 % of control

O=C(NNC(=O)c1ccccc1O)c1ccccc1
inactive: [2] 93 % of control | [5] 93 % of control | [8] 97 % of control

ClCc1ccc(CCl)c(Cl)c1
inactive: dose: 25.0 mg/kg/injection, schedule: Q04DX003 (ip), vehicle: Klucel (hydroxypropylcellulose) (HPC) 86 % of control | dose: 50.0 mg/kg/injection, schedule: Q04DX003 (ip), vehicle: Klucel (hydroxypropylcellulose) (HPC) 97 % of control | dose: 100.0 mg/kg/injection, schedule: Q04DX003 (ip), vehicle: Klucel (hydroxypropylcellulose) (HPC) 94 % of control

O=C1c2ccccc2C(=O)N1CCCCCCCCCN1C(=O)c2ccccc2C1=O
inactive: [16] 113 % of control | [17] 90 % of control | [18] 90 % of control

COc1cc(C)c(C=O)cc1OC
inactive: dose: 5.0 mg/kg/injection, schedule: Q01DX001 (ip), vehicle: saline 103 % of control | dose: 10.0 mg/kg/injection, schedule: Q01DX001 (ip), vehicle: saline 107 % of control | dose: 20.0 mg/kg/injection, schedule: Q01DX001 (ip), vehicle: saline 97 % of control | dose: 40.0 mg/kg/injection, schedule: Q01DX001 (ip), vehicle: saline 101 % of control | dose: 80.0 mg/kg/injection, schedule: Q01DX001 (ip), vehicle: saline 109 % of control

CNC(=O)c1ccc[n+](CC(=O)Nc2ccccc2)c1
inactive: [19] 92 % of control | [20] 102 % of control

CCCCCCCOCc1ccccc1
inactive: [19] 111 % of control | dose: 200.0 mg/kg/injection, schedule: Q04DX003 (ip), vehicle: acetone 94 % of control | dose: 300.0 mg/kg/injection, schedule: Q04DX003 (ip), vehicle: acetone 96 % of control | [21] 97 % of control

C/C(=C\CN1C(=O)CN(C)C1=O)CCC1OC1(C)C (stereo unspecified)
inactive: [13] 115 % of control | dose: 100.0 mg/kg/injection, schedule: Q04DX003 (ip), vehicle: water 100 % of control | [14] 111 % of control | dose: 200.0 mg/kg/injection, schedule: Q04DX003 (ip), vehicle: water 98 % of control | [15] 114 % of control | dose: 400.0 mg/kg/injection, schedule: Q04DX003 (ip), vehicle: water 104 % of control

Cc1ccc(Nc2ccc(Nc3ccc(C)cc3)c3c2C(=O)c2ccccc2C3=O)cc1
inactive: [3] 86 % of control | [6] 87 % of control | [9] 92 % of control

C(=Nc1ccc2c3c(cccc13)-c1ccccc1-2)c1ccc2c(c1)OCO2
inactive: [10] 101 % of control | [11] 97 % of control | [12] 94 % of control

CCC(=O)Nc1cccc(OC(=O)NC(C)C)c1
inactive: [1] 95 % of control | [4] 90 % of control

CC(C)(C)OC(=O)NO
inactive: [22] 103 % of control | dose: 100.0 mg/kg/injection, schedule: Q04DX002 (ip), vehicle: saline 110 % of control | [19] 104 % of control | [23] 100 % of control | dose: 200.0 mg/kg/injection, schedule: Q04DX002 (ip), vehicle: saline 98 % of control | [20] 104 % of control | [24] 108 % of control | dose: 400.0 mg/kg/injection, schedule: Q04DX002 (ip), vehicle: saline 110 % of control | [21] 106 % of control

O=C(OC(c1ccccc1)c1ccccc1)c1ccc([N+](=O)[O-])cc1
inactive: dose: 100.0 mg/kg/injection, schedule: Q01DX001 (ip), vehicle: carboxymethylcellulose (CMC) 98 % of control | dose: 200.0 mg/kg/injection, schedule: Q01DX001 (ip), vehicle: carboxymethylcellulose (CMC) 104 % of control | dose: 400.0 mg/kg/injection, schedule: Q01DX001 (ip), vehicle: carboxymethylcellulose (CMC) 96 % of control

CCOC(CCc1c(C)nc[nH]c1=O)OCC
inactive: [22] 90 % of control | [23] 98 % of control | [24] 95 % of control

COc1cc(CCl)c(OC)cc1Cl
inactive: [1] 100 % of control | [3] 99 % of control | [4] 106 % of control | [6] 91 % of control | [9] 99 % of control

COc1cc(CCNC(=O)Cc2ccc(OCc3ccccc3)c(OC)c2)ccc1OCc1ccccc1
inactive: [1] 89 % of control | [4] 101 % of control | [7] 94 % of control
